Results from US20240300977A1, “INHIBITORS OF DNA-DEPENDENT PROTEIN KINASE AND COMPOSITIONS AND USES THEREOF” (Intellia Therapeutics, Inc., priority 2021, published 2024).

Assays:
NK cells [1] = assay: Percent editing at AAVS1 in NK cells by NGS; format: cell-based, human
Method: Genomic DNA was extracted using QuickExtract™ DNA Extraction Solution (Lucigen, Cat. QE09050) according to manufacturer's protocol.
To quantitatively determine the efficiency of editing at the target location in the genome, next generation sequencing was utilized to identify the presence of insertions and deletions introduced by gene editing. […] Primer sequence design was done as is standard in the field.
Additional PCR was performed according to the manufacturer's protocols (Illumina) to add chemistry for sequencing. The amplicons were sequenced on an Illumina MiSeq instrument. The reads were aligned to the human (e.g., hg38) reference genome after eliminating those having low quality scores. The resulting files containing the reads were mapped to the reference genome (BAM files), where reads that overlapped the target region of interest were selected and the number of wild-type reads versus the number of reads which contain an insertion or deletion (“indel”) was calculated.
The editing percentage (e.g., the “editing efficiency” or “percent editing”) is defined as the total number of sequence reads with insertions or deletions (“indels”) over the total number of sequence reads, including wild type.

NK cells [2] = assay: GFP insertion at AAVS1 in NK cells, flow cytometry; format: cell-based, human; conditions: LNP + AAV, seven days
Method: NK cells were assessed for the impact of DNA protein kinase inhibitors (DNA-PKI) on indel and insertion rates. […] A subset of samples was also treated with AAV encoding a GFP coding sequence flanked by regions of homology to the AAVS1 edit site (SEQ ID NO: 16). NK cells were isolated from a commercially obtained leukopak using the EasySep Human NK Cell Isolation Kit ([…], Cat. No. 17955) according to the manufacturer's protocol. […] NK cells were plated at 50,000 cells per well in triplicate in OpTmizer supplemented as described above with DNA-PKI at concentrations indicated in Tables 10 and 11. […] For a subset of samples, AAV encoding GFP flanked by regions homologous to the AAVS1 edit site were added at a multiplicity of infection (MOI) of 600,000 genome copies following editing. At seven days post LNP composition treatment, cells were phenotyped by flow cytometry to measure GFP insertion rates. Briefly, NK cells were incubated with antibodies targeting CD3 (Biolegend, Cat. No. 317336) and CD56 (Biolegend, Cat. No. 318310). […] NK cells were gated on size, CD3/CD56 status, and GFP expression. High GFP-expressing cells were gated as targeted GFP […] locus and low GFP-expressing cells were gated as episomal retention.

T cells [3] = assay: Off-target structural variation by UnIT; format: cell-based, human; conditions: T cells from Example 12, day 8 post-editing; TRAC sgRNA G013006
Text: (§1) On day 8 post-editing, T cells from Example 12 from the untreated, unedited, Compound 3 and Compound 4 guides samples were collected, spun down and the pellets were directly used as input material for gDNA isolation using “Zymo Quick DNA/RNA Mag Beads Kit” (Zymo Cat. R2131). The UnIT structural variant characterization assay was applied to these gDNA samples. High molecular weight genomic DNA is simultaneously fragmented and sequence-tagged (‘tagmented’) with the Tn5 transposase and an adapter with a partial Illumina P5 sequence and a 12 bp unique molecular identifier (UMI). Two sequential PCRs using a primer to P5 and hemi-nested gene specific primers (GSP) imparting the Illumina the P7 sequence to create two Illumina compatible NGS libraries per sample (Illumina, Ref 15033624). Sequencing across both directions of the CRISPR/Cas9 targeted cut site with the two libraries allows the inference and quantification of structural variants in DNA repair outcomes after genome editing. If the two fragments were aligned to different chromosomes, the SV was classified as an “inter-chromosomal translocation.” The magnitude of structural variation was shown in FIG. 9A and Table 18.

T cells [4] = assay: Insertion percent in T cells of Example 17; format: cell-based, human; conditions: T cells from Example 12; FIG. 9B
Text: as §1

T cells [5] = assay: SpyCas9 TRAC editing (indel) in T cells by NGS with or without Compound 4; format: cell-based, human; conditions: day 4 NGS
Method: Upon thaw, T cells were plated at a density of 1.0×10^6 cells/mL in T cell growth media (TCGM) composed of CTS OpTmizer T Cell Expansion SFM and T Cell Expansion Supplement (ThermoFisher Cat. A1048501), 5% human AB serum (GeminiBio, Cat. 100-512) 1× Penicillin-Streptomycin, 1× Glutamax, 10 mM HEPES, 200 U/mL recombinant human interleukin-2 (Peprotech, Cat. 200-02), 5 ng/ml recombinant human interleukin 7 (Peprotech, Cat. 200-07), and 5 ng/mL recombinant human interleukin 15 (Peprotech, Cat. 200-15). T cells were rested in this media for 24 hours, at which time they were activated with T Cell TransAct™, human reagent (Miltenyi, Cat. 130-111-160) added at a 1:100 ratio by volume.
48 hours post-activation, T cells were harvested, centrifuged at 500 g for 5 min, and resuspended at a concentration of 6.41×10^5 T cells/mL in T cell plating media (TCPM): a serum-free version of TCGM containing 400 U/mL recombinant human interleukin-2 (Peprotech, Cat. 200-02), 10 ng/mL recombinant human interleukin 7 (Peprotech, Cat. 200-07), and 10 ng/mL recombinant human interleukin 15 (Peprotech, Cat. 200-15). 50 μL of T cells in TCPM (3.2×10^4 T cells) were added per well to be treated in flat-bottom 96-well plates.
LNPs were generated as described in Example 1 at a ratio of 50/38.5/10/1.5 (Lipid A/cholesterol/DSPC/PEG2k-DMG).
Mix “A” was serially diluted 1:2 in TCTM, and mixed 1:1 by volume with mix “B”. 25 μL of the resulting solution was added to 3.2×10^4 T cells in 96-well plates.
Next, a repair template in the form of an adeno-associated virus (AAV) encoding the HD3 TCR (SEQ ID NO: 18 was diluted in TCTM to 3.84×10^11 genome copies/mL in the presence or absence of Compound 4 diluted to 2 μM. 25 μL of the resulting solution was added to T cells that were treated with LNPs in the prior step. To enable editing assessments by NGS without the interference of repair templates, an arm of this experiment received 25 μL of TCTM with or without Compound 4 diluted to 2 μM in the absence of AAVs.
Following the addition of LNPs, repair templates and Compound 4, T cells were incubated at 37° C. for 48 hours, at which time T cells were centrifuged at 500 g for 5 min, resuspended in 200 μL of TCGM and returned to the incubator.

TRAC = conditions: human
TRBC = assay: Off-target site validation, rhAmpSeq; conditions: gRNA G016239 targeting TRBC; of 92 off-target sites; with the named DNA-PKI or none
T cells [6] = assay: TRAC LNP editing and GFP insertion in activated T cells with DNA-PK inhibitors, flow cytometry; conditions: GFP positive of the CD3 negative T cells, day 5 post-edit

Cc1cc2ncnn2cc1Nc1ncc2c(n1)n(C1CCC3(CC1)CC3)c(=O)n2C [Compound 4, 7-methyl-2-((7-methyl-[1,2,4]triazolo[1,5-a]pyridin-6-yl)amino)-9-(spiro[2.5]octan-6-yl)-7,9-dihydro-8H-purin-8-one]
Mean percent editing at AAVS1 (NK cells [1]; DNA-PKI 0.125 uM): 96.77% | Mean percent editing at AAVS1 (NK cells [1]; DNA-PKI 0.5 uM): 97.67% | Percent of NK cells with high GFP expression (Mean) (NK cells [2]; DNA-PKI 0.125 uM): 88.10% | Percent of NK cells with high GFP expression (Mean) (NK cells [2]; DNA-PKI 0.5 uM): 90.27% | Unintended Structural Variance (Average) (T cells [3]): 1.46% | Insertion Percent (Average) (T cells [4]): 67.82% | Mean TRAC Editing % (T cells [5]; sgRNA 0 μg/mL, Spy Cas9 + Compound 4): 0.20% | Mean TRAC Editing % (T cells [5]; sgRNA 0.026 μg/mL, Spy Cas9 + Compound 4): 48.55% | Mean TRAC Editing % (T cells [5]; sgRNA 0.052 μg/mL, Spy Cas9 + Compound 4): 63.45% | Mean TRAC Editing % (T cells [5]; sgRNA 0.104 μg/mL, Spy Cas9 + Compound 4): 79.25% | Mean TRAC Editing % (T cells [5]; sgRNA 0.209 μg/mL, Spy Cas9 + Compound 4): 89.00% | Mean TRAC Editing % (T cells [5]; sgRNA 0.418 μg/mL, Spy Cas9 + Compound 4): 94.45% | Mean TRAC Editing % (T cells [5]; sgRNA 0.835 μg/mL, Spy Cas9 + Compound 4): 96.15% | Mean TRAC Editing % (T cells [5]; sgRNA 1.67 μg/mL, Spy Cas9 + Compound 4 (2 μM stock, 25 μL added)): 96.10% | Sites Validated (TRAC): 0 | Sites Validated (TRBC): 0 | Mean % CD3^−/GFP+ Cells (n = 3) (T cells [6]; compound 0.0625 uM): 58.13% | Mean % CD3^−/GFP+ Cells (n = 3) (T cells [6]; compound 1 uM): 80.07%
